How the values were obtained:
CaCC = test: Ca2+ evoked current in A23187 treated Xenopus oocytes; type: cell-based; settings: Ca2+ 5 mM
Procedure: (§1) For experiments involving TMEM16 constructs, capped cRNA was in vitro transcribed from linearized plasmids using the mMessage mMachine kit (Ambion). Female Axolotls and Xenopus laevis were purchased from the Ambystoma Genetic Stock Center and Nasco respectively. Oocytes from these animals were defoliculated by treatment with collagenase prepared as described. Usually 5 ng of cRNA (50 ng for mRNA) was injected into defolliculated oocytes. Oocytes were kept at 17° C. in ND96 solution (96 mM NaCl, 2 mM KCl, 1.8 mM CaCl2, 1 mM MgCl2, 10 mM HEPES [pH 7.4]). Two-electrode voltage-clamp measurements were performed at room temperature 2-4 days after injection using a GeneClamp500 amplifier (Axon Instruments) and pClamp 8.0 software (Axon Instruments). Oocytes used in photolysis experiments were injected with […] of 100 μM caged inositol trisphosphate [myo-inositol 1,4,5-trisphosphate, P4(5)-1-(2-nitrophenyl)ethyl ester] (Molecular Probes) at least 1 h before recording, and kept in dark until usage. For flash photolysis light derived from a mercury arc lamp was guided by a fused silica fiber (Oriel) to the top of oocytes in the recording chamber. Flash time was controlled via electronic shutter.
FIGS. 2A-f. Carbachol and Ca^2+ evoked current responses in different oocytes. […]

endogenous CaCCs = test: NFA inhibition of IP3-induced Ca2+ activated Cl- currents, two electrode voltage clamp, Xenopus oocytes; type: cell-based, Xenopus laevis
Procedure: as §1
Currents were usually recorded in Ca^2+ free ND96 solution (96 mM NaCl, 2 mM KCl, 3 mM MgCl2, 10 mM HEPES [pH 7.4]). Solutions for Cl^−/gluconate replacement experiments were prepared from appropriate mixtures of solutions containing high Cl^− (95 mM NaCl, 1 mM KCl, 2 mM MgCl2, 10 mM HEPES [pH 7.4]) and solutions containing high gluconate (95 mM NaGluconate, 1 mM KCl, 2 mM MgCl2, 10 mM HEPES [pH 7.4]). In other permeability experiments solutions containing 90 NaX, 2 KCl, 4 MgCl, 10 mM HEPES [pH 7.4] with X=Cl^−, Br^−, I^− or SCN^− were used. […] The permeability ratios were calculated from shifts in reversal potential ΔErev using the Goldman-Hodgkin-Katz Equation in the form: PX/PCl=(γ·[Cl^−](1)−[Cl^−](2))/[X^−](2) were [Cl^−](1), [Cl^−](2) and [X^−](2) are the external Cl^− and X^− concentration before and after solution exchange. […]

xTMEM16A = test: NFA inhibition of IP3-induced CaCC currents, two electrode voltage clamp, Axolotl oocytes injected with xTMEM16A cRNA; type: cell-based; settings: Axolotl oocytes expressing xTMEM16A, 30 μM NFA, long lasting current
Procedure: as §1, with “(Molecular Probes) at least 1 h before recording, and kept in dark until usage. For flash photolysis light derived from a mercury arc lamp was guided by a fused silica fiber (Oriel) to the top of oocytes in the recording chamber. Flash time was controlled via electronic shutter.” left out
Currents were usually recorded in Ca^2+ free ND96 solution (96 mM NaCl, 2 mM KCl, 3 mM MgCl2, 10 mM HEPES [pH 7.4]). […] The permeability ratios were calculated from shifts in reversal potential ΔErev using the Goldman-Hodgkin-Katz Equation in the form: PX/PCl=(γ·[Cl^−](1)−[Cl^−](2))/[X^−](2) were [Cl^−](1), [Cl^−](2) and [X^−](2) are the external Cl^− and X^− concentration before and after solution exchange. […]

`CNc1ccc2oc(C[C@H]3O[C@@]4(CC[C@H]3C)O[C@H]([C@H](C)C(=O)c3ccc[nH]3)[C@H](C)C[C@H]4C)nc2c1C(=O)O` [A23187] was tested, and the “CaCC activation by A23187 then high calcium solution” value (CaCC) was “resulted in CaCC activation”.

In the case of `O=C(O)c1cccnc1Nc1cccc(C(F)(F)F)c1` [NFA, niflumic acid], the “effect on decay of the residual CaCC current” value (endogenous CaCCs; 30 μM NFA) is reported as “slowed the decay of the residual current”, the “effect on IP3-induced CaCC current amplitude” value (endogenous CaCCs; 30 μM NFA, 1 min perfusion, ND96) is reported as “reduced the IP3-induced CaCC current” and the “reversibility after removal of NFA” value (endogenous CaCCs; after 5 min ND96 wash) is reported as “restored both the amplitude and the kinetics of the CaCC current”. For the same compound, the “effect on amplitude of a CaCC current of long duration” value (xTMEM16A) was “barely reduced in amplitude”.
